According to patent publication US20250353855A1, “HETEROCYCLIC AND HETEROARYL COMPOUNDS FOR TREATING HUNTINGTON'S DISEASE” (PTC THERAPEUTICS, INC., priority 2022, published 2025):
Where two headings read alike, the source gives them in different places.

System: Endogenous Huntingtin Protein
Assay: Endogenous Huntingtin Protein Assay (ELISA-based MSD electrochemiluminescence)
Format: cell-based
Conditions: MSD plates coated with MW1 (expanded polyglutamine) or MAB2166 capture antibody, lysates
Outline: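 Electrochemiluminescence sandwich ELISA for endogenous huntingtin: capture with MW1 (expanded polyglutamine) or MAB2166 antibody at 1 μg/mL, samples incubated overnight at 4° C. Detection with rabbit monoclonal #5656S then goat anti-rabbit SULFO-TAG antibody (each 0.25 μg/mL, 1 h room temperature), read on MSD imager.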

| IC50 (read-out: IC50) [nM] | SMILES | IC50 [nM] |
| --- | --- | --- |
| < 100 | Cc1cnc2cc(O)c(-c3cc4c(nn3)N([C@H]3CC(C)(C)NC(C)(C)[C@H]3F)CC4)cc2c1 [Cpd 81, 6-{7-[(3S,4S)-3-fluoro-2,2,6,6-tetramethylpiperidin-4-yl]-6,7-dihydro-5H-pyrrolo[2,3-c]pyridazin-3-yl}-3-methylquinolin-7-ol] |  |
| < 100 | Cc1nc2cc(-c3cc4ccn([C@H]5CC(C)(C)NC(C)(C)[C@H]5F)c4nn3)c(O)c(F)c2o1 [Cpd 102, 7-fluoro-5-{7-[(3S,4S)-3-fluoro-2,2,6,6-tetramethylpiperidin-4-yl]-7H-pyrrolo[2,3-c]pyridazin-3-yl}-2-methyl-1,3-benzoxazol-6-ol] |  |
| < 100 | Cc1ncc2cc(O)c(-c3cc4c(nn3)N([C@H]3CC(C)(C)NC(C)(C)[C@H]3F)CC4)cc2n1 [Cpd 87, 7-{7-[(3S,4S)-3-fluoro-2,2,6,6-tetramethylpiperidin-4-yl]-6,7-dihydro-5H-pyrrolo[2,3-c]pyridazin-3-yl}-2-methylquinazolin-6-ol] |  |
| < 100 | Cc1nc2cc(O)c(-c3cc4c(nn3)N([C@@H]3CCNC(C)(C)[C@@H]3F)CC4)cc2o1 (single isomer, unassigned) [Cpd 64, 6-{7-[(3R,4R)-3-fluoro-2,2-dimethylpiperidin-4-yl]-6,7-dihydro-5H-pyrrolo[2,3-c]pyridazin-3-yl}-2-methyl-1,3-benzoxazol-5-ol or 6-{7-[(3S,4S)-3-fluoro-2,2-dimethylpiperidin-4-yl]-6,7-dihydro-5H-pyrrolo[2,3-c]pyridazin-3-yl}-2-methyl-1,3-benzoxazol-5-ol] |  |
| < 100 | Cc1nc2cc(O)c(-c3cc4ccn([C@H]5CC(C)(C)NC(C)(C)[C@H]5F)c4nn3)cc2s1 [Cpd 4, 6-{7-[(3S,4S)-3-fluoro-2,2,6,6-tetramethylpiperidin-4-yl]-7H-pyrrolo[2,3-c]pyridazin-3-yl}-2-methyl-1,3-benzothiazol-5-ol] |  |
| < 100 | Cc1cnc2cc(-c3cc4ccn([C@H]5CC(C)(C)NC(C)(C)[C@H]5F)c4nn3)c(O)cc2c1 [Cpd 30, 7-{7-[(3S,4S)-3-fluoro-2,2,6,6-tetramethylpiperidin-4-yl]-7H-pyrrolo[2,3-c]pyridazin-3-yl}-3-methylquinolin-6-ol] |  |
| < 100 | CC1(C)C[C@H](N2CCc3cc(-c4cc5ccncc5cc4O)nnc32)[C@H](F)C(C)(C)N1 [Cpd 70, 6-{7-[(3S,4S)-3-fluoro-2,2,6,6-tetramethylpiperidin-4-yl]-6,7-dihydro-5H-pyrrolo[2,3-c]pyridazin-3-yl}isoquinolin-7-ol] |  |
| < 100 | Cc1ccc2cc(O)c(-c3cc4c(nn3)N([C@H]3CC(C)(C)NC(C)(C)[C@H]3F)CC4)cc2n1 [Cpd 77, 7-{7-[(3S,4S)-3-fluoro-2,2,6,6-tetramethylpiperidin-4-yl]-6,7-dihydro-5H-pyrrolo[2,3-c]pyridazin-3-yl}-2-methylquinolin-6-ol] |  |
| < 100 | Cc1nc2cc(O)c(-c3cc4ccn([C@H]5CC(C)(C)NC(C)(C)[C@H]5F)c4nn3)cc2o1 [Cpd 3, 6-{7-[(3S,4S)-3-fluoro-2,2,6,6-tetramethylpiperidin-4-yl]-7H-pyrrolo[2,3-c]pyridazin-3-yl}-2-methyl-1,3-benzoxazol-5-ol] |  |
| < 100 | Cn1nnc2cc(-c3cc4ccn([C@H]5CC(C)(C)NC(C)(C)[C@H]5F)c4nn3)c(O)cc21 [Cpd 41, 5-{7-[(3S,4S)-3-fluoro-2,2,6,6-tetramethylpiperidin-4-yl]-7H-pyrrolo[2,3-c]pyridazin-3-yl}-1-methyl-1H-benzotriazol-6-ol] |  |
| < 100 | CC1(C)C[C@H](n2ccc3cc(-c4cc5ncc(F)cc5cc4O)nnc32)[C@H](F)C(C)(C)N1 [Cpd 40, 3-fluoro-7-{7-[(3S,4S)-3-fluoro-2,2,6,6-tetramethylpiperidin-4-yl]-7H-pyrrolo[2,3-c]pyridazin-3-yl}quinolin-6-ol] |  |
| < 100 | Cc1cnc2cc(-c3cc4c(nn3)N([C@H]3CC(C)(C)NC(C)(C)[C@H]3F)CC4)c(O)cc2c1 [Cpd 75, 7-{7-[(3S,4S)-3-fluoro-2,2,6,6-tetramethylpiperidin-4-yl]-6,7-dihydro-5H-pyrrolo[2,3-c]pyridazin-3-yl}-3-methylquinolin-6-ol] |  |
| < 100 | CCc1nc2cc(-c3cc4ccn([C@H]5CC(C)(C)NC(C)(C)[C@H]5F)c4nn3)c(O)cc2s1 [Cpd 14, 2-ethyl-5-{7-[(3S,4S)-3-fluoro-2,2,6,6-tetramethylpiperidin-4-yl]-7H-pyrrolo[2,3-c]pyridazin-3-yl}-1,3-benzothiazol-6-ol] |  |
| < 100 | Cc1ccc2cc(-c3cc4ccn([C@H]5CC(C)(C)NC(C)(C)[C@H]5F)c4nn3)c(O)cc2n1 [Cpd 32, 6-{7-[(3S,4S)-3-fluoro-2,2,6,6-tetramethylpiperidin-4-yl]-7H-pyrrolo[2,3-c]pyridazin-3-yl}-2-methylquinolin-7-ol] |  |

More lines, now with the values behind:

| SMILES | IC50 (read-out: IC50) [nM] | IC50 [nM] |
| --- | --- | --- |
| Cc1nc2cc(-c3cc4ccn([C@@H]5CCNC6(CCC6)[C@@H]5F)c4nn3)c(O)cc2s1 (single isomer, unassigned) [Cpd 34, 5-{7-[(8R,9R)-9-fluoro-5-azaspiro[3.5]nonan-8-yl]-7H-pyrrolo[2,3-c]pyridazin-3-yl}-2-methyl-1,3-benzothiazol-6-ol or 5-{7-[(8S,9S)-9-fluoro-5-azaspiro[3.5]nonan-8-yl]-7H-pyrrolo[2,3-c]pyridazin-3-yl}-2-methyl-1,3-benzothiazol-6-ol] | 100 to 500 |  |
| Cn1nnc2cc(O)c(-c3cc4c(nn3)N([C@H]3CC(C)(C)NC(C)(C)[C@H]3F)CC4)cc21 [Cpd 92, 6-{7-[(3S,4S)-3-fluoro-2,2,6,6-tetramethylpiperidin-4-yl]-6,7-dihydro-5H-pyrrolo[2,3-c]pyridazin-3-yl}-1-methyl-1H-benzotriazol-5-ol] | < 100 |  |
| Cc1cc(=O)oc2cc(O)c(-c3cc4c(nn3)N([C@@H]3C[C@H]5CC[C@H](N5)[C@@H]3F)CC4)cc12 (single isomer, unassigned) [Cpd 79, 6-{7-[(1S,2S,3R,5R)-2-fluoro-8-azabicyclo[3.2.1]octan-3-yl]-6,7-dihydro-5H-pyrrolo[2,3-c]pyridazin-3-yl}-7-hydroxy-4-methyl-2H-1-benzopyran-2-one or 6-{7-[(1R,2R,3S,5S)-2-fluoro-8-azabicyclo[3.2.1]octan-3-yl]-6,7-dihydro-5H-pyrrolo[2,3-c]pyridazin-3-yl}-7-hydroxy-4-methyl-2H-1-benzopyran-2-one] | < 100 |  |
| COc1cnc2cc(-c3cc4ccn([C@H]5CC(C)(C)NC(C)(C)[C@H]5F)c4nn3)c(O)cc2n1 [Cpd 33, 7-{7-[(3S,4S)-3-fluoro-2,2,6,6-tetramethylpiperidin-4-yl]-7H-pyrrolo[2,3-c]pyridazin-3-yl}-3-methoxyquinoxalin-6-ol] |  | < 100 |
| CC1(C)CC(n2nnc3cc(-c4cc5cccnc5cc4O)nnc32)CC(C)(C)N1 [Cpd 2, 6-[3-(2,2,6,6-tetramethylpiperidin-4-yl)-3H-[1,2,3]triazolo[4,5-c]pyridazin-6-yl]quinolin-7-ol] | 1000 to 3000 |  |
| Cc1cc(=O)oc2cc(O)c(-c3cc4c(nn3)N([C@H]3CC(C)(C)NC(C)(C)[C@H]3F)CC4)cc12 [Cpd 65, 6-{7-[(3S,4S)-3-fluoro-2,2,6,6-tetramethylpiperidin-4-yl]-6,7-dihydro-5H-pyrrolo[2,3-c]pyridazin-3-yl}-7-hydroxy-4-methyl-2H-1-benzopyran-2-one] | < 100 |  |
| Cc1nc2cc(O)c(-c3cc4nnn(C5CC(C)(C)NC6(CC6)C5)c4nn3)cc2s1 (stereo not shown) [Cpd 12, 6-[3-(5,5-dimethyl-4-azaspiro[2.5]octan-7-yl)-3H-[1,2,3]triazolo[4,5-c]pyridazin-6-yl]-2-methyl-1,3-benzothiazol-5-ol] | < 100 |  |
| COc1nc2cc(O)c(-c3cc4ccn([C@H]5CC(C)(C)NC(C)(C)[C@H]5F)c4nn3)cc2o1 [Cpd 25, 6-{7-[(3S,4S)-3-fluoro-2,2,6,6-tetramethylpiperidin-4-yl]-7H-pyrrolo[2,3-c]pyridazin-3-yl}-2-methoxy-1,3-benzoxazol-5-ol] |  | < 100 |
| CC1(C)CC(n2nnc3cc(-c4cc5c(cc4O)C(=O)CC5)nnc32)CC(C)(C)N1 [Cpd 1, 6-hydroxy-5-[3-(2,2,6,6-tetramethylpiperidin-4-yl)-3H-[1,2,3]triazolo[4,5-c]pyridazin-6-yl]-2,3-dihydro-1H-inden-1-one] | 1000 to 3000 |  |
| Cc1cc(=O)c2cc(-c3cc4c(nn3)N([C@H]3CC(C)(C)NC(C)(C)[C@H]3F)CC4)c(O)cc2o1 [Cpd 68, 6-{7-[(3S,4S)-3-fluoro-2,2,6,6-tetramethylpiperidin-4-yl]-6,7-dihydro-5H-pyrrolo[2,3-c]pyridazin-3-yl}-7-hydroxy-2-methyl-4H-1-benzopyran-4-one] | < 100 |  |
| Cc1nc2cc(O)c(-c3cc4ccn([C@@H]5CCNC(C)(C)[C@@H]5F)c4nn3)cc2s1 [Cpd 19, 6-{7-[(3R,4R)-3-fluoro-2,2-dimethylpiperidin-4-yl]-7H-pyrrolo[2,3-c]pyridazin-3-yl}-2-methyl-1,3-benzothiazol-5-ol] |  | < 100 |
| Cc1nc2cc(O)c(-c3cc4c(nn3)N([C@H]3CCNC5(CC5)C3)CC4)cc2o1 [Cpd 43, 6-{7-[(7S)-4-azaspiro[2.5]octan-7-yl]-6,7-dihydro-5H-pyrrolo[2,3-c]pyridazin-3-yl}-2-methyl-1,3-benzoxazol-5-ol] | < 100 |  |
| CC1(C)C[C@H](N2CCc3cc(-c4cc5nsnc5cc4O)nnc32)[C@H](F)C(C)(C)N1 [Cpd 85, 6-{7-[(3S,4S)-3-fluoro-2,2,6,6-tetramethylpiperidin-4-yl]-6,7-dihydro-5H-pyrrolo[2,3-c]pyridazin-3-yl}-2,1,3-benzothiadiazol-5-ol] | < 100 |  |
| Cc1nc2cc(-c3cc4c(nn3)N(C3CCNC5(CCC5)[C@@H]3F)CC4)c(O)cc2s1 (single isomer, unassigned) [Cpd 74, 5-{7-[(8R,9R)-9-fluoro-5-azaspiro[3.5]nonan-8-yl]-6,7-dihydro-5H-pyrrolo[2,3-c]pyridazin-3-yl}-2-methyl-1,3-benzothiazol-6-ol or 5-{7-[(8S,9S)-9-fluoro-5-azaspiro[3.5]nonan-8-yl]-6,7-dihydro-5H-pyrrolo[2,3-c]pyridazin-3-yl}-2-methyl-1,3-benzothiazol-6-ol] | < 100 |  |
